Data as given in ChEMBL document CHEMBL2311415, “Cytotoxic quassinoids from Ailanthus altissima” (Bioorg Med Chem Lett, 2013).
pIC50: −log10 of the molar value.

What was measured:
HepG2 [1] = experiment: Cytotoxicity against human adriamycin-resistant HepG2 cells measured after 48 hrs by MTT assay; assay type: functional, cell-based; details: HepG2, 48 h
[2] = Cytotoxicity against human Hep3B cells measured after 48 hrs by MTT assay; assay type: functional, cell-based, Hep 3B2
HepG2 [3] = experiment: Cytotoxicity against human HepG2 cells measured after 48 hrs by MTT assay; assay type: functional, cell-based; details: HepG2, 48 h

SMILES | pIC50 (HepG2 [1]) | pIC50 [2] | pIC50 (HepG2 [3])
C=C1[C@H](O)[C@]2(O)OC[C@]34[C@H]2[C@@]2(C)[C@H](O)[C@@H](O)C=C(C)[C@@H]2C[C@H]3OC(=O)C[C@@H]14 [SHINJULACTONE A] | < 4.30 | 5.10 | 5.33
CC(=O)O[C@@H]1C(=O)[C@H](C)[C@@H]2CC(=O)O[C@@H]3C[C@H]4[C@H](C)C[C@H](O)C(=O)[C@]4(C)[C@@H]1[C@@]32C | < 4.30 | < 4.30 | < 4.30
COc1cccc2c1C(=O)c1c(O)c3c(c(O)c1C2=O)C[C@@](O)(C(=O)CO)C[C@@H]3O[C@H]1C[C@H](N)[C@H](O)[C@H](C)O1 [DOXORUBICIN] | 4.07 | 6.54 | 
C=C1[C@@H](O)[C@@]2(O)OC[C@@]34[C@H]1[C@@H](OC(=O)C(O)(CC)COC(=O)/C(C)=C\C)C(=O)O[C@@H]3C[C@H]1C(C)=CC(=O)[C@@H](O)[C@]1(C)[C@@H]24 (stereo partly specified) [ALTISSINOL A] | < 4.30 | 6.43 | 6.55
CC1=CC(=O)O[C@@H]1[C@@]1(C)C[C@H]2OC(=O)C[C@H]3[C@@H](C)C(=O)C(O)=C1[C@@]23CO [SHINJULACTONE B] | < 4.30 | < 4.30 | < 4.30
CC1=CC(=O)[C@@H](O)[C@]2(C)[C@H]3[C@@]4(O)OC[C@@]35[C@@H](C[C@@H]12)OC(=O)C[C@H]5[C@@H](C)[C@H]4O [CHAPARRINONE] | < 4.30 | 5.66 | 5.92
C/C=C(/C)C(=O)O[C@@H]1[C@H]2C(C)=CC(=O)[C@@H](O)[C@]2(C)[C@H]2[C@@]3(O)OC[C@@]24[C@@H]1OC(=O)C[C@H]4[C@@H](C)[C@H]3O | 4.77 | 7.30 | 6.26
C[C@H]1[C@H](O)C(=O)[C@@H]2[C@@]3(C)[C@H](O)[C@@H](O)C[C@@H](C)[C@@H]3C[C@H]3OC(=O)C[C@@H]1[C@@]23C [CHAPARROLIDE] | < 4.30 | < 4.30 | < 4.30
C[C@@H]1C[C@H](O)C(=O)[C@]2(C)[C@H]3[C@H](O)C(=O)[C@H](C)[C@@H]4CC(=O)O[C@H](C[C@@H]12)[C@]34C [AMAROLIDE] | < 4.30 | < 4.30 | < 4.30
C=C1[C@@H](O)[C@@]2(O)OC[C@@]34[C@H]1[C@@H](OC(=O)C(C)CC)C(=O)O[C@@H]3C[C@H]1C(C)=C[C@H](O)[C@@H](O)[C@]1(C)[C@@H]24 (stereo partly specified) [ALTISSINOL B] | < 4.30 | 5.63 | 5.91
CC1=CC(=O)[C@]2(O)[C@@]3(O)C(=O)[C@@H]4[C@]5(CO)[C@H]6CC(=O)O[C@@H]5C[C@@]1([C@@]42C)[C@]63C [SHINJULACTONE C] | < 4.30 | < 4.30 | < 4.30
C=C1[C@@H](O)[C@]2(O)OC[C@@]34[C@H]1[C@@H](OC(=O)[C@](C)(O)CC)C(=O)O[C@@H]3C[C@H]1C(C)=C[C@H](O)[C@@H](O)[C@]1(C)[C@@H]24 | 4.71 | 6.01 | 5.94
CC[C@](C)(O)C(=O)O[C@H]1C(=O)O[C@@H]2C[C@H]3C(C)=C[C@H](O)[C@@H](O)[C@]3(C)[C@H]3[C@]4(O)OC[C@]32[C@@H]1[C@@H](C)[C@H]4O [GLAUCARUBIN] | < 4.30 | 4.63 | 4.45
C/C=C(/C)C(=O)O[C@@H]1[C@H]2C(C)=C[C@H](O)[C@@H](O)[C@]2(C)[C@H]2[C@@]3(O)OC[C@@]24[C@@H]1OC(=O)C[C@H]4[C@@H](C)[C@H]3O | < 4.30 | 5.61 | 4.98
